Patent publication US10765754B2, “Compositions and methods related to inhibition of respiratory syncytial virus entry” (priority 2015, dated 2020)
Positions of bridges follow the written chain, without caps; N, C: chain ends. Non-standard residues stand in square brackets, D forms with d. Residues, ends and D or L forms follow the SMILES beside them.

Target: T1, RSV-B/IZN45 (Human respiratory syncytial virus B, UniProt O36634)
T1 construct: N-trimer Mimics Synthesized; made in house; host or cells: chemical peptide synthesis
Assay: biochemical
Assay type: binding
Settings: synthesized peptide; RSV-B/IZN45; KD determined by SPR
Description: IZN45 N-trimer mimic comprises the IZ domain, a highly soluble, designed coiled-coil that helps solubilize the N-trimer, along with the C-terminal (bottom) 45 residues of the RSV N-trimer. IZN45 encompasses the full ordered portion of the N-trimer except for three N-terminal residues (removed to maintain a continuous heptad repeat with the IZ domain). The interactions between 35-residue RSV C-peptides, T108 and T118 (Lambert et al., 1996, Proc. Natl. Acad. Sci. USA 93:2186-2191), and IZN45 was examined by surface plasmon resonance (SPR). SPR is a gold standard assay to measure the kinetics and affinity of biological interactions. […] The Biotinylated L-form of RSV target IZN45 was captured onto one lane of a NeutrAvidin coated SPR chip. A mutant version of IZN45 containing four mutated residues along the N-trimer groove designed to disrupt binding (IZN45 Full Mut, negative control) was captured onto a separate lane of the NeutrAvidin chip. T118, corresponding to the C-terminal portion of the RSV F ectodomain, which is known to interact with the RSV N-trimer groove, was flowed over the various surfaces. […] The surfaces were regenerated with a detergent (0.1% SDS) after each injection of analyte. Various concentrations of T118 were measured in duplicate or triplicate injections. D-peptide interactions with IZN45 and IZN45-Full Mut surfaces were also measured using this method.
Peptides from the ‘winning’ phage clones from each library were synthesized as D-peptides. If solubility of the peptides was limited, N- or C-terminal charged residue(s) (e.g., lysine) were attached as necessary as previously described for HIV peptides in Eckert et al., 1999, Cell 99:103-15, incorporated by reference in its entirety. Binding affinity and kinetics of the D-peptide inhibitors to the IZN45 and IZN45 mutants was characterized by SPR (Biacore 3000), using methods as described in Welch et al., 2007, Proc. Natl. Acad. Sci. USA 104:16828-33, incorporated by reference in its entirety.

T1 sequence (O36634 163-207, added parts left off): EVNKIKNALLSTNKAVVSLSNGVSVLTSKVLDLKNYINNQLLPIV

For `CC[C@@H](C)[C@@H](NC(C)=O)C(=O)N[C@H](CO)C(=O)N[C@H](CC(C)C)C(=O)N1CCC[C@@H]1C(=O)N[C@@H](C(=O)N1CCC[C@@H]1C(=O)N[C@@H](C(=O)N[C@H](Cc1c[nH]c2ccccc12)C(=O)N[C@H](Cc1c[nH]c2ccccc12)C(=O)N1CCC[C@@H]1C(=O)N[C@H](CO)C(=O)N[C@@H](C(=O)NCC(=O)N[C@H](CCCCN)C(N)=O)[C@H](C)O)[C@H](C)O)[C@H](C)O` [Ac-X12-45-GK] (Ac-[dI][dS][dL][dP][dT][dP][dT][dW][dW][dP][dS][dT]G[dK]-NH2), the Kd was 23 µM.
`CC[C@@H](C)[C@@H](NC(=O)[C@H](NC(=O)[C@@H](CCCCN)NC(=O)[C@@H](CO)NC(C)=O)C(C)C)C(=O)N[C@H](CC(C)C)C(=O)N1CCC[C@@H]1C(=O)N[C@H](CCC(=O)O)C(=O)N1CCC[C@@H]1C(=O)N[C@H](Cc1ccccc1)C(=O)N[C@H](Cc1c[nH]c2ccccc12)C(=O)N[C@H](Cc1c[nH]c2ccccc12)C(=O)N1CCC[C@@H]1C(=O)NCC(=O)NCC(N)=O` [Ac-X12-47-GG] (Ac-[dS][dK][dV][dI][dL][dP][dE][dP][dF][dW][dW][dP]GG-NH2) gave a Kd of 15 µM.
`CC[C@@H](C)[C@@H](NC(=O)[C@@H](CC(=O)O)NC(=O)[C@@H](CC(=O)O)NC(=O)[C@@H](Cc1c[nH]c2ccccc12)NC(=O)[C@@H](Cc1c[nH]c2ccccc12)NC(=O)[C@H]1CCCN1C(=O)[C@@H](CCC(N)=O)NC(=O)[C@@H](CC(C)C)NC(=O)[C@H]1CCCN1C(=O)[C@@H](CC(C)C)NC(=O)[C@@H](Cc1c[nH]c2ccccc12)NC(=O)[C@H](N)Cc1c[nH]cn1)C(=O)N1CCC[C@@H]1C(=O)N[C@@H](C(=O)N[C@H](Cc1c[nH]c2ccccc12)C(=O)N[C@H](Cc1c[nH]cn1)C(=O)NCC(=O)N[C@H](CCCCN)C(N)=O)C(C)C` [X16-20-GK] (H-[dH][dW][dL][dP][dL][dQ][dP][dW][dW][dD][dD][dI][dP][dV][dW][dH]G[dK]-NH2) was tested, and the Kd was 2 µM.
`CC[C@@H](C)[C@H]1NC(=O)[C@@H](CCCCN)NC(=O)[C@H](NC(=O)[C@@H](C)NC(=O)CN)CSSC[C@H](C(=O)N[C@H](C)C(=O)N[C@H](C)C(=O)NCC(=O)NCC(N)=O)NC(=O)[C@@H](CC(=O)O)NC(=O)[C@@H](Cc2c[nH]cn2)NC(=O)[C@@H](Cc2c[nH]c3ccccc23)NC(=O)[C@@H](Cc2c[nH]cn2)NC(=O)[C@@H](Cc2ccccc2)NC(=O)[C@@H](CC(C)C)NC(=O)[C@@H](CC(=O)O)NC(=O)[C@@H](Cc2c[nH]cn2)NC1=O` [CX10C-119-GG] (H-G[dA][dC][dK][dI][dH][dD][dL][dF][dH][dW][dH][dD][dC][dA][dA]GG-NH2; disulfide 3-14) gave a Kd of 130 µM.
In the case of `CC[C@@H](C)[C@H]1NC(=O)[C@@H](CCCCN)NC(=O)[C@H](NC(=O)[C@@H](C)NC(=O)CNC(C)=O)CSSC[C@H](C(=O)N[C@H](C)C(=O)N[C@H](C)C(N)=O)NC(=O)[C@@H](CC(=O)O)NC(=O)[C@@H](Cc2c[nH]cn2)NC(=O)[C@@H](Cc2c[nH]c3ccccc23)NC(=O)[C@@H](Cc2c[nH]cn2)NC(=O)[C@@H](Cc2ccccc2)NC(=O)[C@@H](CC(C)C)NC(=O)[C@@H](CC(=O)O)NC(=O)[C@@H](Cc2c[nH]cn2)NC1=O` [Ac-CX10C-119] (Ac-G[dA][dC][dK][dI][dH][dD][dL][dF][dH][dW][dH][dD][dC][dA][dA]-NH2; disulfide 3-14), the Kd is reported as 280 µM.
`CSCC[C@@H](NC(=O)[C@@H](Cc1c[nH]c2ccccc12)NC(=O)[C@@H](Cc1c[nH]c2ccccc12)NC(=O)[C@@H](Cc1ccc(O)cc1)NC(=O)[C@@H](CCCCN)NC(=O)[C@@H](CC(C)C)NC(=O)[C@@H](CO)NC(C)=O)C(=O)N[C@H](CCC(=O)O)C(=O)N[C@H](CCC(=O)O)C(=O)N[C@H](CC(C)C)C(=O)N1CCC[C@@H]1C(=O)N[C@H](CC(C)C)C(=O)N1CCC[C@@H]1C(=O)N[C@H](CCCCN)C(=O)N[C@H](Cc1c[nH]c2ccccc12)C(=O)N[C@H](Cc1c[nH]c2ccccc12)C(=O)NCC(=O)NCC(N)=O` [Ac-X16-18-GG] (Ac-[dS][dL][dK][dY][dW][dW][dM][dE][dE][dL][dP][dL][dP][dK][dW][dW]GG-NH2) gave a Kd of 5.4 µM.
